In patent publication EP1063290A1, “NOVEL DICARBONYLREDUCTASE AND GENE ENCODING THE SAME” (TAISHO PHARMACEUTICAL CO., LTD, priority 1998, dated 1999):
Like-named read-outs stand apart in the source and are kept apart here.

Tests used:
[1] = biological target: protein DCR1 (Mus musculus, UniProt Q91X52); test: Dicarbonyl reductase activity assay: substrate specificity and rate constants (NAD(P)H oxidation at 340 nm); settings: for activity (as substrate): Example 5, result in words
Experimental: (§1) The enzyme activity assay method is not particularly restricted, and it may be based on the activity assay method for mouse carbonyl reductase (CR) (Eur. J. Biochem. 22, 381-387(1995)). The enzyme used here was an expressed recombinant enzyme. • (a) Substrate specificity: In order to determine the substrate specificity, there may be used a hydrocarbon system including various ketone, aldehyde and ester groups, or an aromatic compound.
• (1) This was assayed under the following conditions. The reaction mixture (total: 2.0 ml) comprised an 80 mM potassium phosphate solution (pH 7.0 or 6.0), 0.1 mM NADPH or NADH and a carbonyl substrate or enzyme (50 µl) (10.1 µg or 3.7 µg of glomerin B). The oxidation rate for NAD(P)H was measured at 340 nm.

[2] = biological target: protein hDCR1 (Homo sapiens, UniProt Q7Z4W1); test: Dicarbonyl reductase activity assay: substrate specificity (NAD(P)H oxidation at 340 nm); settings: against a reference of 100 for diacetyl
Chain of protein hDCR1 (Q7Z4W1 whole entry): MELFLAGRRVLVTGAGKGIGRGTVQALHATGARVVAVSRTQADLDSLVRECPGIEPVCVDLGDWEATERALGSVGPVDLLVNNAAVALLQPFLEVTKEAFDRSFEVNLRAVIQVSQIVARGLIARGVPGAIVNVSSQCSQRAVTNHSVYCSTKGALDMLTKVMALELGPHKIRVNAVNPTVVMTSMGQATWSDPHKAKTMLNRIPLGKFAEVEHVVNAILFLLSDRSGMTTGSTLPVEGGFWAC
Experimental: as §1
The reaction mixture (total: 2.0 ml) comprised an 80 mM potassium phosphate solution (pH 7.0 or 6.0), 0.1 mM NADPH or NADH and a carbonyl substrate or enzyme (50 µl) (10.1 µg or 3.7 µg of hDCR1).
The oxidation rate for NAD(P)H was measured at 340 nm.
One unit of enzyme activity was defined as that which catalyzed oxidation of 1 µmol of NAD(P)H in one minute at 25°C.

[3] = biological target: T1, hamster liver diacetyl reductase (Hamster DR) (Mesocricetus auratus, UniProt Q91XV4); test: Inhibition of the enzyme reaction; assay type: biochemical; settings: read-out: Inhibition (%) Hamster DR
T1 construct: from tissue; host or cells: hamster liver
T1 sequence (Q91XV4 whole entry): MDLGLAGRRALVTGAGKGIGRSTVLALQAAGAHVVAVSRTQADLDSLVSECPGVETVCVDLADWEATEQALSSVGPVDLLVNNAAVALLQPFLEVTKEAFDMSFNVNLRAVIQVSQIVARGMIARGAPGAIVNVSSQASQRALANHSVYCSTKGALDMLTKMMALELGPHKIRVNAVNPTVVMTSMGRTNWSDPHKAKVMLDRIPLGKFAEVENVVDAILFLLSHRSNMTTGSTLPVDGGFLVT
Description: (§2) Two enzymes were used here, mouse DCR1 and hamster liver diacetyl reductase (Hamster DR).

[4] = biological target: T2, mouse DCR1 (Mus musculus, UniProt Q91X52); test: Inhibition of the enzyme reaction; assay type: biochemical; settings: read-out: Inhibition (%) CDR1
T2 construct: made in house; host or cells: E. coli K12
T2 sequence (Q91X52 whole entry): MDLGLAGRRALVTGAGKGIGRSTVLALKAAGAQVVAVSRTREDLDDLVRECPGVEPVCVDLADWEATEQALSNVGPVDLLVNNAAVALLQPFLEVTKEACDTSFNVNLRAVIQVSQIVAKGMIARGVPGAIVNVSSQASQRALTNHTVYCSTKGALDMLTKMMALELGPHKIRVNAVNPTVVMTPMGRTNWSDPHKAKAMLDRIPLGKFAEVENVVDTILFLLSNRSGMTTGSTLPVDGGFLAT
Description: as §2

[5] = substrate concentration 1,000 μM, against a reference of 100 for diacetyl
[6] = substrate concentration 5,000 μM, against a reference of 100 for diacetyl
[7] = substrate concentration 5,000 μM
[8] = substrate concentration 1,000 μM
[9] = substrate concentration 20 μM, against a reference of 100 for diacetyl
[10] = substrate concentration 2,000 μM
[11] = substrate concentration 500 μM, against a reference of 100 for diacetyl
[12] = substrate concentration 100 μM, against a reference of 100 for diacetyl

Chain of protein DCR1 (Q91X52 whole entry): as above

O=CC(O)CO (racemic) [DL-Glyceraldehyde]
RA (%) relative activity [1, 5]: 10.4% | RA (%) relative activity [1, 6]: 40% | RA (%) relative activity [2, 7]: 25%

O=C1CCCCC1=O [1,2-Cyclohexanedione]
RA (%) relative activity [1, 5]: 10.9% | RA (%) relative activity [2, 8]: 27%

O=C1C=Cc2ccccc2C1=O [1,2-Naphtoquinone]
RA (%) relative activity [1, 9]: 47%

O=C1CCC(=O)CC1 [1,4-Cyclohexanedione]
RA (%) relative activity [1, 5]: 0%

CCCCCCCCC=O [1-Nonanal]
RA (%) relative activity ([1]; substrate concentration 50 μM, against a reference of 100 for diacetyl): 0.005%

O=C1c2ccccc2C(=O)C1c1ccccc1 [1-Phenyl-1,3-indanedione]
RA (%) relative activity ([1]; substrate concentration 400 μM, against a reference of 100 for diacetyl): 0.6%

CCC=O [1-Propanal]
RA (%) relative activity [1, 6]: 0.5%

CC(=O)CC(C)=O [2,4-Pentanedione]
RA (%) relative activity [1, 5]: 0% | RA (%) relative activity [2, 8]: 0%

CC(=O)CCC(C)=O [2,5-Hexanedione]
RA (%) relative activity [1, 5]: 0%

CCC(C)=O [2-Butanone]
RA (%) relative activity [1]: 0%

O=C1C=CCCC1 [2-Cyclohexen-1-one]
RA (%) relative activity [1, 5]: 1.3%

O=C(O)C(=O)[C@@H](O)[C@H](O)[C@@H](O)CO [2-Ketogulonate]
RA (%) relative activity [1, 5]: 0%

O=Cc1ccccc1[N+](=O)[O-] [2-Nitrobenzaldehyde]
RA (%) relative activity ([1]; substrate concentration 1,500 μM, against a reference of 100 for diacetyl): 3.9% | RA (%) relative activity [2, 8]: 99%

OC1C=CCCC1 (centres unmarked) [2-cyclohexen-1-ol]
activity (as substrate) [1]: no activity

O=CC(=O)C[C@H](O)[C@H](O)CO [3-Deoxyglucosone]
RA (%) relative activity ([1]; substrate concentration 2,000 μM, against a reference of 100 for diacetyl): 0.4% | RA (%) relative activity [2, 10]: 5%

O=Cc1cccc([N+](=O)[O-])c1 [3-Nitrobenzaldehyde]
RA (%) relative activity ([1]; substrate concentration 3,000 μM, against a reference of 100 for diacetyl): 3.3%

O=C(c1ccccc1)c1ccncc1 [4-Benzoylpyridine]
RA (%) relative activity [1, 5]: 7% | RA (%) relative activity [2, 8]: 39%

NC(=O)c1ccc(O)cc1 [4-Hydroxybenzamide]
inhibition at 1000 µM [3]: 19% | inhibition at 1000 µM [4]: 44%

CC(=O)c1ccc([N+](=O)[O-])cc1 [4-Nitroacetophenone]
activity (as substrate) [1]: no activity | RA (%) relative activity [1, 5]: 0% | RA (%) relative activity [2, 8]: 0%

O=Cc1ccc([N+](=O)[O-])cc1 [4-Nitrobenzaldehyde]
RA (%) relative activity [1, 5]: 3.3% | RA (%) relative activity [2, 8]: 69%

C[C@]12CCC(=O)C[C@@H]1CC[C@@H]1[C@@H]2CC[C@]2(C)C(=O)CC[C@@H]12 [5α-Androstane-3,17-dione]
RA (%) relative activity [1]: 0.0% | RA (%) relative activity ([2]; substrate concentration 50 μM): 0%

C[C@]12CCC(=O)C[C@@H]1CC[C@@H]1[C@@H]2CC[C@]2(C)[C@@H](O)CC[C@@H]12 [5α-DHT]
RA (%) relative activity ([2]; substrate concentration 50 μM): 0%

C[C@]12CCC(=O)C[C@H]1CC[C@@H]1[C@@H]2CC[C@]2(C)C(=O)CC[C@@H]12 [5β-Androstane-3,17-dione]
RA (%) relative activity [1]: 0.0%

CC(=O)[C@H]1CC[C@H]2[C@@H]3CC[C@@H]4CC(=O)CC[C@]4(C)[C@H]3CC[C@]12C [5β-Pregnane-3,20-dione]
RA (%) relative activity [1, 9]: 0.0%

C[C@]12CCC(=O)C[C@H]1CC[C@@H]1[C@@H]2C(=O)C[C@@]2(C)[C@H]1CC[C@]2(O)C(=O)CO [5β-dihydrocortisone]
RA (%) relative activity ([2]; substrate concentration 20 μM): 0%

CC(=O)[C@@]1(O)CC[C@H]2[C@@H]3CCC4=CC(=O)CC[C@]4(C)[C@H]3CC[C@@]21C [17α-hydroxyprogesterone]
RA (%) relative activity [1, 9]: 0.0% | RA (%) relative activity ([2]; substrate concentration 50 μM): 0%

CC=O [Acetaldehyde]
RA (%) relative activity [1, 6]: 1.8%

CC(=O)c1ccc(S(=O)(=O)NC(=O)NC2CCCCC2)cc1 [Acetohexamide]
RA (%) relative activity [1, 5]: 0%

CC(=O)C(C)O (centres unmarked) [Acetoin]
RA (%) relative activity [1, 6]: 7.4% | RA (%) relative activity [2, 7]: 13%

CC(=O)CO [Acetol]
RA (%) relative activity [1, 5]: 0.8%

Nc1ccccc1C(=O)O [Anthranilic acid]
inhibition at 100 µM [3]: 42% | inhibition at 100 µM [4]: 0%

CCC1(CC)C(=O)NC(=O)NC1=O [Barbital]
inhibition at 1000 µM [3]: 5% | inhibition at 1000 µM [4]: 0%

CC(=O)C=Cc1ccccc1 [Benzalacetone]
RA (%) relative activity [1, 11]: 0%

NC(=O)c1ccccc1 [Benzamide]
inhibition at 1000 µM ([3]; compound concentration 1 mM): 43% | inhibition at 1000 µM ([4]; compound concentration 1 mM): 18%

O=C(C(=O)c1ccccc1)c1ccccc1 [Benzil]
RA (%) relative activity [1, 12]: 0%

O=C(O)c1ccccc1 [Benzoic acid]
inhibition at 100 µM [3]: 59% | inhibition at 100 µM [4]: 32%

CC12CCC(C(=O)C1=O)C2(C)C (centres unmarked) [Camphorquinone]
RA (%) relative activity [1, 11]: 6% | RA (%) relative activity ([2]; substrate concentration 500 μM): 23%

C[C@]12C[C@H](O)[C@H]3[C@@H](CCC4=CC(=O)CC[C@@]43C)[C@@H]1CC[C@@H]2C(=O)C=O [Corticosterone-21-al]
RA (%) relative activity [1, 9]: 0.0%

C[C@]12C[C@H](O)[C@H]3[C@@H](CCC4=CC(=O)CC[C@@]43C)[C@@H]1CC[C@@H]2C(=O)CO [Corticosterone]
RA (%) relative activity ([2]; substrate concentration 50 μM): 0%

C[C@]12CCC(=O)C=C1CC[C@@H]1[C@@H]2[C@@H](O)C[C@@]2(C)[C@H]1CC[C@]2(O)C(=O)C=O [Cortisol-21-al]
RA (%) relative activity [1, 9]: 0.0%

O=C[C@H](O)[C@@H](O)[C@H](O)[C@H](O)CO [D-Glucose]
RA (%) relative activity ([1]; substrate concentration 200,000 μM, against a reference of 100 for diacetyl): 0%

O=C[C@H](O)[C@@H](O)[C@H](O)[C@H](O)C(=O)O [D-Glucuronate]
RA (%) relative activity [1, 5]: 0%

C[C@@H](O)C=O [D-Lactoaldehyde]
RA (%) relative activity [1, 5]: 0.6%

COc1cccc2c1C(=O)c1c(O)c3c(c(O)c1C2=O)C[C@@](O)(C(C)=O)C[C@@H]3O[C@H]1C[C@H](N)[C@H](O)[C@H](C)O1 [Daunorubicin]
RA (%) relative activity [1, 11]: 1.1% | RA (%) relative activity ([2]; substrate concentration 500 μM): 0%

O=C1O[C@H]([C@@H](O)CO)C(=O)C1=O [Dehydroascorbic acid]
RA (%) relative activity [1, 11]: 0%

COC(=O)CCC(=O)C(=O)OC [Dimethyl-2-oxoglutarate]
RA (%) relative activity [2, 10]: 63%

O=C1NC(=O)C(c2ccccc2)(c2ccccc2)N1 [Diphenlhydantoin]
inhibition at 100 µM [3]: 2% | inhibition at 100 µM [4]: 17%

CCOC(=O)CC(C)=O [Ethyl acetoacetate]
RA (%) relative activity [1, 5]: 0%

O=CCO [Glycolaldehyde]
RA (%) relative activity [1, 6]: 0.9%

O=CC=O [Glyoxal]
RA (%) relative activity [1, 6]: 0%

CC1=CC(=O)c2ccccc2C1=O [Menadione (Vitamin K3), Menadione]
activity (as substrate) [1]: no activity | RA (%) relative activity [1, 12]: 0.1% | RA (%) relative activity ([2]; substrate concentration 100 μM): 0%

COC(=O)CC(C)=O [Methyl acetoacetate]
RA (%) relative activity [1, 5]: 0.2%

CC(=O)C=O [Methylglyoxal]
RA (%) relative activity [1, 5]: 2.3% | RA (%) relative activity [1, 6]: 7.9% | RA (%) relative activity [2, 7]: 20%

C=CCN1CC[C@]23c4c5ccc(O)c4O[C@H]2C(=O)CC[C@@]3(O)[C@H]1C5 [Naloxone]
RA (%) relative activity [1, 5]: 0%

CCCCC[C@H](O)/C=C/[C@H]1[C@H](O)CC(=O)[C@@H]1C/C=C\CCCC(=O)O [PGE2]
RA (%) relative activity [1, 5]: 0.0%

O=CC(=O)c1ccccc1 [Phenylglyoxal]
RA (%) relative activity [1, 5]: 3.9% | RA (%) relative activity [2, 8]: 35%

O=C(O)C(=O)Cc1ccccc1 [Phenylpyruvic acid]
RA (%) relative activity [1, 5]: 0.5%

CCC(=O)c1ccccc1 [Propiophenone]
RA (%) relative activity [1, 5]: 0%

O=Cc1cccnc1 [Pyridine-3-aldehyde]
RA (%) relative activity [1, 5]: 4% | RA (%) relative activity [2, 8]: 27%

O=Cc1ccncc1 [Pyridine-4-aldehyde]
RA (%) relative activity [1, 6]: 13.7% | RA (%) relative activity [2, 8]: 27%

CCOC(=O)C(C)=O [Pyruvic acid ethyl ester]
RA (%) relative activity [1, 5]: 35.2% | RA (%) relative activity [2, 8]: 33%

COC(=O)C(C)=O [Pyruvic acid methyl ester]
RA (%) relative activity [1, 5]: 23.3% | RA (%) relative activity [2, 8]: 46%

CC(=O)C(=O)O [Pyruvic acid]
RA (%) relative activity [1, 6]: 0%

O[C@H]1CCc2ccccc21 [S-indan-1-ol]
activity (as substrate) [1]: no activity

C[C@]12CC[C@@H](O)C[C@H]1CC[C@@H]1[C@@H]2[C@@H](O)C[C@]2(C)[C@@H](C(=O)CO)CC[C@@H]12 [Tetrahydrocorticosterone]
RA (%) relative activity [1]: 0.0%

O=C(O)CCC(=O)C(=O)O [α-Ketoglutaric acid]
RA (%) relative activity [1, 5]: 0%

Indolecarboaldehyde
RA (%) relative activity [1, 5]: 0%

Phenyl-2-butanone
RA (%) relative activity [1, 5]: 0.2%
